Data as given in patent US20120277209A1, “PYRAZINE COMPOUNDS AS PHOSPHODIESTERASE 10 INHIBITORS” (Amgen Inc., priority 2009, published 2012).

Biological target: PDE10 (UniProt Q9Y233)
Assay: PDE10 enzyme inhibition, IMAP TR-FRET assay (MPDE10A7 Enzyme Activity and Inhibition)
Format: biochemical
Conditions: IC50 class against PDE10; read-out: IC50
Method in brief: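 IMAP TR-FRET read-out of PDE10 hydrolysis of fluorescein-cAMP or -cGMP (60 min, room temperature), after a 30 min compound-enzyme preincubation. Enzyme source was PDE10A or tissue homogenate. Averaged IC50s are reported as five range classes.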

Molecule	IC50 [nM]
O=C(c1ccc(Oc2nccnc2Oc2ccccc2)cc1)c1nc2ccccc2[nH]1 [Example 167, (1H-benzo[d]imidazol-2-yl)(4-(3-phenoxypyrazin-2-yloxy)phenyl)methanone]	100 to 250
COc1ncccc1-c1nccnc1Oc1ccc(Nc2nc3ccccc3s2)c(F)c1 [Example 157, N-(2-fluoro-4-(3-(2-methoxypyridin-3-yl)pyrazin-2-yloxy)phenyl)benzo[d]thiazol-2-amine]	25 to 100
FC(F)(c1ccc(Oc2nccnc2N2CCOCC2)cc1)c1nc2ccccc2[nH]1 [Example 7, 4-(3-(4-((1H-BENZO[D]IMIDAZOL-2-YL)DIFLUOROMETHYL)PHENOXY)PYRAZIN-2-YL)MORPHOLINE]	100 to 250
COc1ncccc1-c1nccnc1Oc1ccc(C(=O)c2nc3ccccc3n2CCF)cc1 [Example 134, (1-(2-fluoroethyl)-1H-benzo[d]imidazol-2-yl)(4-(3-(2-methoxypyridin-3-yl)pyrazin-2-yloxy)phenyl)methanone]	< 25
COc1cncc(-c2nccnc2Oc2ccc(Nc3nc4ccccc4s3)cc2)c1 [Example 156, N-(4-(3-(5-methoxypyridin-3-yl)pyrazin-2-yloxy)phenyl)benzo[d]thiazol-2-amine]	25 to 100
COCCOc1nccnc1Oc1ccc(C(=O)c2nc3ccccc3[nH]2)cc1 [Example 165, (1H-benzo[d]imidazol-2-yl)(4-(3-(2-methoxyethoxy)pyrazin-2-yloxy)phenyl)methanone]	250 to 1000
COC(=O)N1CCC(c2nccnc2Oc2ccc(C(=O)c3nc4ccccc4[nH]3)cc2)CC1 [Example 227, methyl 4-(3-(4-(1H-benzo[d]imidazole-2-carbonyl)phenoxy)pyrazin-2-yl)piperidine-1-carboxylate]	< 25
COc1cccc(-c2nccnc2Oc2ccc(C(=O)c3nc4ccccc4[nH]3)cc2)c1 [Example 128, (1H-benzo[d]imidazol-2-yl)(4-(3-(3-methoxyphenyl)pyrazin-2-yloxy)phenyl)methanone]	< 25
Fc1cc(Oc2cnccn2)ccc1Nc1nc2ccccc2s1 [Example 216, N-(2-fluoro-4-(pyrazin-2-yloxy)phenyl)benzo[d]thiazol-2-amine]	1000 to 5000
Fc1ccc2sc(Nc3ccc(Oc4nccnc4Cl)cc3)nc2c1 [Example 102, N-(4-(3-chloropyrazin-2-yloxy)-phenyl)-5-fluorobenzo[d]thiazol-2-amine]	1000 to 5000
CC(C)COc1nccnc1Oc1ccc(C(=O)c2nc3ccccc3[nH]2)cc1 [Example 162, (1H-benzo[d]imidazol-2-yl)(4-(3-isobutoxypyrazin-2-yloxy)phenyl)methanone]	1000 to 5000
O=C(c1ccc(Oc2nccnc2C2CCSCC2)cc1)c1nc2ccccc2[nH]1 [Example 222, 1H-BENZO[D]IMIDAZOLE-2-YL(4-(3-(TETRAHYDRO-2H-THIOPYRAN-4-YL)PYRAZIN-2-YLOXY)PHENYL)METHANONE]	< 25
COc1ccncc1-c1nccnc1Oc1ccc(C(=O)c2nc3ccccc3[nH]2)cc1 [Example 112, (1H-benzo[d]imidazol-2-yl)(4-(3-(4-methoxypyridin-3-yl)pyrazin-2-yloxy)phenyl)methanone]	25 to 100
c1ccc2[nH]c(Nc3ccc(Oc4nccnc4C4CCOCC4)cc3)nc2c1 [Example 207, N-(4-(3-(tetrahydro-2H-pyran-4-yl)pyrazin-2-yloxy)phenyl)-1H-benzo[d]imidazol-2-amine]	< 25
O=C(c1ccc(Oc2nccnc2C2CCOCC2)cc1)c1nc2ccc(F)cc2[nH]1 [Example 183, (6-fluoro-1H-benzo[d]imidazol-2-yl)(4-(3-(tetrahydro-2H-pyran-4-yl)pyrazin-2-yloxy)phenyl)methanone]	< 25
O=C(c1ccc(Oc2nccnc2[C@H]2CCC[C@@H](O)C2)cc1)c1nc2ccccc2[nH]1 (racemic) [Example 189, (rac)-cis-(1H-benzo[d]imidazol-2-yl)(4-(3-(3-hydroxycyclohexyl)pyrazin-2-yloxy)phenyl)methanone]	< 25
CC1(C)C=C(c2nccnc2Oc2ccc(C(=O)c3nc4ccccc4[nH]3)cc2)C(=O)CC1 [Example 132, 2-(3-(4-(1H-benzo[d]imidazole-2-carbonyl)phenoxy)pyrazin-2-yl)-4,4-dimethylcyclohex-2-enone]	25 to 100
O=C(c1ccc(Oc2nccnc2C(=O)NCCc2ccccn2)cc1)c1nc2ccccc2[nH]1 [Example 257, 3-(4-(1H-benzo[d]imidazole-2-carbonyl)phenoxy)-N-(2-(pyridin-2-yl)ethyl)pyrazine-2-carboxamide]	< 25
c1ccc2sc(Nc3ccc(Oc4nccnc4-c4cncnc4)cc3)nc2c1 [Example 143, N-(4-(3-(pyrimidin-5-yl)pyrazin-2-yloxy)phenyl)benzo[d]thiazol-2-amine]	< 25
CC1CN(c2nccnc2Oc2ccc(Nc3nc4ccccc4s3)cc2)CC(=O)N1 (racemic) [Example 94, 4-(3-(4-(benzo[d]thiazol-2-ylamino)phenoxy)pyrazin-2-yl)-6-methylpiperazin-2-one]	< 25
OCC1CCCCN1c1nccnc1Oc1ccc(Nc2nc3ccccc3s2)cc1 (stereo not drawn) [Example 97, (1-(3-(4-(benzo[d]thiazol-2-ylamino)phenoxy)pyrazin-2-yl)piperidin-2-yl)methanol]	< 25
COc1cccc2nc(Nc3ccc(Oc4nccnc4C4CCOCC4)cc3)[nH]c12 [Example 209, 7-methoxy-N-(4-(3-(tetrahydro-2H-pyran-4-yl)pyrazin-2-yloxy)phenyl)-1H-benzo[d]imidazol-2-amine]	< 25
O=C1CCCC(c2nccnc2Oc2ccc(Nc3nc4ccccc4s3)cc2)C1 (racemic) [Example 194, (rac)-3-(3-(4-(benzo[d]thiazol-2-ylamino)phenoxy)pyrazin-2-yl)cyclohexanone]	< 25
(6-fluoro-1-methyl-1H-benzo[d]imidazol-2-yl)(4-(3-(tetrahydro-2H-pyran-4-yl)pyrazin-2-yloxy)phenyl)methanone and (5-fluoro-1-methyl-1H-benzo[d]imidazol-2-yl)(4-(3-(tetrahydro-2H-pyran-4-yl)pyrazin-2-yloxy)phenyl)methanone [Example 185]	< 25
N#Cc1cccc(-c2nccnc2Oc2ccc(C(=O)c3nc4ccccc4[nH]3)cc2)c1 [Example 125, 3-(3-(4-(1H-benzo[d]imidazole-2-carbonyl)phenoxy)pyrazin-2-yl)benzonitrile]	< 25
O=C(c1ccc(Oc2nccnc2C2CCCOCC2)cc1)c1nc2ccccc2[nH]1 (stereo not drawn) [Example 198, (1H-benzo[d]imidazol-2-yl)(4-(3-(oxepan-4-yl)pyrazin-2-yloxy)phenyl)methanone]	< 25
COC(=O)C1CCN(c2nccnc2Oc2ccc(Nc3nc4ccccc4s3)cc2)C1 (stereo not drawn) [Example 96, methyl 1-(3-(4-(benzo[d]thiazol-2-ylamino)phenoxy)pyrazin-2-yl)pyrrolidine-3-carboxylate]	< 25

Same assay, conditions: PDE10 enzyme inhibition; average IC50 data for each compound; read-out: Average IC50

Molecule	IC50 [nM]
COCC(=O)N1CCC(c2nccnc2Oc2ccc(C(=O)c3nc4ccccc4[nH]3)cc2)CC1 [drawing 945]	0.0365
CC#CCOc1nccnc1Oc1ccc(C(=O)c2nc3ccccc3[nH]2)cc1 [drawing 852]	673
O=C(O)C1CN(c2nccnc2Oc2ccc(Nc3nc4ccccc4s3)cc2)C1 [drawing 718]	2.16
O=C(c1ccc(Oc2nccnc2OCC(F)(F)F)cc1)c1nc2ccccc2[nH]1 [drawing 847]	187
Fc1ccc2sc(Nc3ccc(Oc4nccnc4Cl)cc3)nc2c1 [drawing 832]	> 30000
O=C(c1ccc(Oc2nccnc2Cl)cc1)c1nc2ccc(F)cc2[nH]1 [drawing 813]	1580
COC(=O)[C@H]1CCN(c2nccnc2Oc2ccc(C(=O)c3nc4ccccc4[nH]3)cc2)C1 [drawing 837]	4.21
Fc1cc(-c2nccnc2Oc2ccc(Nc3nc4ccccc4s3)c(F)c2)ccn1 [drawing 974]	63.1
O[C@@H]1CCC[C@H](c2nccnc2Oc2ccc(Nc3nc4ccccc4s3)cc2)C1 (stereo in doubt)	2.32
Fc1ccc2sc(Nc3ccc(Oc4cnccn4)cc3)nc2c1 [drawing 882]	12500
c1ccc2sc(Nc3ccc(Oc4nccnc4-c4cnc5[nH]ccc5c4)cc3)nc2c1 [drawing 765]	76
c1ccc2sc(Nc3ccc(Oc4nccnc4-c4cccc5ncccc45)cc3)nc2c1 [drawing 821]	14.4
CC(=O)N1CCC[C@@H](c2nccnc2Oc2ccc(C(=O)c3nc4ccccc4[nH]3)cc2)C1 (stereo in doubt)	2.96
CC(C)Oc1nccnc1Oc1ccc(C(=O)c2nc3ccccc3[nH]2)cc1 [drawing 844]	56.6
FC(F)(c1ccc(Oc2nccnc2C2CCOCC2)cc1)c1nc2ccccc2[nH]1	52.9
C[C@H](F)C(=O)N1CCC(c2nccnc2Oc2ccc(C(=O)c3nc4ccccc4[nH]3)cc2)CC1 [drawing 977]	0.137
CC1(C)CCC(=O)[C@@H](c2nccnc2Oc2ccc(C(=O)c3nc4ccccc4[nH]3)cc2)C1	154
CC1(C)CCC(=O)[C@H](c2nccnc2Oc2ccc(C(=O)c3nc4ccccc4[nH]3)cc2)C1	41.8
COC(=O)[C@@H]1CCN(c2nccnc2Oc2ccc(C(=O)c3nc4ccccc4[nH]3)cc2)C1 (stereo in doubt)	3.43
O=C1CN(c2nccnc2Oc2ccc(Nc3nc4ccccc4s3)cc2)CCN1 [drawing 749]	6.41
COCC1CCCN(c2nccnc2Oc2ccc(Nc3nc4ccccc4s3)cc2)C1 (stereo not drawn) [drawing 736]	18.5
O=C(c1ccc(Oc2nccnc2OCC2CCOC2)cc1)c1nc2ccccc2[nH]1 (stereo not drawn) [drawing 854]	5.56
N#C[C@H]1CCN(c2nccnc2Oc2ccc(Nc3nc4ccccc4s3)cc2)C1 (stereo in doubt)	3.3

Same assay, conditions: PDE10 enzyme inhibition; chiral compounds separated from racemic mixtures; read-out: IC50

Molecule	IC50 [nM]
O=C(c1ccc(Oc2nccnc2[C@@H]2CCC[C@H](O)C2)cc1)c1nc2ccccc2[nH]1 [Example 269, (1H-benzo[d]imidazol-2-yl)(4-(3-((1R,3S)-3-hydroxycyclohexyl)pyrazin-2-yloxy)phenyl) methanone]	< 25
